In US9695168B2 (Incyte Corporation, priority 2014, dated 2017):

Target: LSD1 (Homo sapiens (Human), UniProt O60341)
Assay: LSD1 Histone Demethylase Biochemical Assay (LANCE LSD1/KDM1A demethylase assay)
Details: 1 nM LSD-1 enzyme, 1 hour preincubation at 25° C., 0.4 μM Biotin-labeled Histone H3 peptide substrate
Procedure: LSD1 Histone Demethylase Biochemical Assay
LANCE LSD1/KDM1A demethylase assay-10 μL of 1 nM LSD-1 enzyme (ENZO BML-SE544-0050) in the assay buffer (50 mM Tris, pH 7.5, 0.01% Tween-20, 25 mM NaCl, 5 mM DTT) were preincubated for 1 hour at 25° C. with 0.8 μL compound/DMSO dotted in black 384 well polystyrene plates. […] Reactions were stopped by addition of 10 μL 1× LANCE Detection Buffer (PerkinElmer CR97-100) supplemented with 1.5 nM Eu-anti-unmodified H3K4 Antibody (PerkinElmer TRF0404), and 225 nM LANCE Ultra Streptavidin (PerkinElmer TRF102) along with 0.9 mM Tranylcypromine-HCl (Millipore 616431). After stopping the reactions plates were incubated for 30 minutes and read on a PHERAstar FS plate reader (BMG Labtech).

| SMILES | IC50 [nM] |
| --- | --- |
| CN(C)[C@H]1CCN(c2nc(-c3ccc(C#N)cc3)c(-c3ccc4c(c3)oc(=O)n4C)n3cncc23)C1 [Example 112, (S)-4-(8-(3-(dimethylamino)pyrrolidin-1-yl)-5-(3-methyl-2-oxo-2,3-dihydrobenzo[d]oxazol-6-yl)imidazo[1,5-a]pyrazin-6-yl)benzonitrile] | 50 to 100 |
| CCn1nnc2cc(-c3c(-c4ccc(C#N)cc4)cc(OC[C@@H]4CCCN(C)C4)c4cncn34)cnc21 [Example 117, 4-(5-(3-ethyl-3H-[1,2,3]triazolo[4,5-b]pyridin-6-yl)-8-{[(3R)-1-methylpiperidin-3-yl]methoxy}imidazo[1,5-a]pyridin-6-yl)benzonitrile] | 50 to 100 |
| CC(O)CN1CCC[C@@H](COc2cc(-c3ccc(C#N)cc3)c(-c3cnc4c(c3)OCCO4)n3cncc23)C1 (stereo partly drawn) [Example 118, 4-(5-(2,3-dihydro[1,4]dioxino[2,3-b]pyridin-7-yl)-8-{[(3R)-1-(2-hydroxypropyl)piperidin-3-yl]methoxy}imidazo[1,5-a]pyridin-6-yl)benzonitrile] | 50 to 100 |
| CC(O)CN1CCC[C@@H](COc2cc(-c3ccc(C#N)cc3)c(-c3cnc4ccoc4c3)n3cncc23)C1 (stereo partly drawn) [Example 119, 4-(5-(furo[3,2-b]pyridin-6-yl)-8-(((3R)-1-(2-hydroxypropyl)piperidin-3-yl)methoxy)imidazo[1,5-a]pyridin-6-yl)benzonitrile] | 50 to 100 |
| CC(O)c1c(F)cc(-c2c(-c3ccc(C#N)cc3)cc(OC[C@@H]3CCCN(C)C3)c3cncn23)cc1F (stereo partly drawn) [Example 124, 4-(5-[3,5-difluoro-4-(1-hydroxyethyl)phenyl]-8-{[(3R)-1-methylpiperidin-3-yl]methoxy}imidazo[1,5-a]pyridin-6-yl)benzonitrile] | 50 to 100 |
| CN1CCC[C@@H](COc2cc(-c3ccc(C#N)cc3)c(-c3ccc(C(C)(C)C#N)nc3)n3cncc23)C1 [Example 132, 4-(5-[6-(1-cyano-1-methylethyl)pyridin-3-yl]-8-{[(3R)-1-methylpiperidin-3-yl]methoxy}imidazo[1,5-a]pyridin-6-yl)benzonitrile] | 50 to 100 |
| CCc1ccc(-c2c(-c3ccc(C#N)cc3)cc(OC[C@@H]3CCCN(C)C3)c3cncn23)cn1 [Example 133, 4-(5-(6-ethylpyridin-3-yl)-8-{[(3R)-1-methylpiperidin-3-yl]methoxy}imidazo[1,5-a]pyridin-6-yl)benzonitrile] | 50 to 100 |
| CNC(=O)c1ccc(-c2c(-c3ccc(C#N)cc3)cc(OC[C@@H]3CCCN(C)C3)c3cncn23)cn1 [Example 135, 5-(6-(4-cyanophenyl)-8-{[(3R)-1-methylpiperidin-3-yl]methoxy}imidazo[1,5-a]pyridin-5-yl)-N-methylpyridine-2-carboxamide] | 50 to 100 |
| Cc1ncc(-c2c(-c3ccc(C#N)cc3)nc(N3CCC(N(C)C)CC3)c3cncn23)cc1C(F)F [Example 140, 4-{5-[5-(difluoromethyl)-6-methylpyridin-3-yl]-8-[4-(dimethylamino)piperidin-1-yl]imidazo[1,5-a]pyrazin-6-yl}benzonitrile] | 50 to 100 |
| CNC(=O)c1ccc(-c2c(-c3ccc(C#N)cc3)nc(N3CCC(N(C)C)CC3)c3cncn23)cn1 [Example 141, 5-{6-(4-cyanophenyl)-8-[4-(dimethylamino)piperidin-1-yl]imidazo[1,5-a]pyrazin-5-yl}-N-methylpyridine-2-carboxamide] | 100 to 500 |
| CCN1CCC[C@@H](COc2cc(-c3ccc(C#N)cc3)c(-c3ccc(C)nc3)n3cncc23)C1 [Example 146, 4-[8-{[(3R)-1-ethylpiperidin-3-yl]methoxy}-5-(6-methylpyridin-3-yl)imidazo[1,5-a]pyridin-6-yl]benzonitrile] | 50 to 100 |
| COCc1cc(-c2c(-c3ccc(C#N)cc3)cc(OC[C@@H]3CCCN(C)C3)c3cncn23)cnc1C [Example 147, 4-(5-[5-(methoxymethyl)-6-methylpyridin-3-yl]-8-{[(3R)-1-methylpiperidin-3-yl]methoxy}imidazo[1,5-a]pyridin-6-yl)benzonitrile] | 50 to 100 |
| COc1ncc(-c2c(-c3ccc(C#N)cc3)nc(N3CCC(N(C)C)CC3)c3cncn23)cn1 [Example 150, 4-[8-[4-(dimethylamino)piperidin-1-yl]-5-(2-methoxypyrimidin-5-yl)imidazo[1,5-a]pyrazin-6-yl]benzonitrile] | 100 to 500 |
| CN1CCC[C@@H](COc2cc(-c3ccc(C#N)cc3)c(-c3ccc(C(C)(C)O)nc3)n3cncc23)C1 [Example 151, 4-(5-[6-(1-hydroxy-1-methylethyl)pyridin-3-yl]-8-{[(3R)-1-methylpiperidin-3-yl]methoxy}imidazo[1,5-a]pyridin-6-yl)benzonitrile] | 100 to 500 |
| CN1CCC[C@@H](COc2cc(-c3ccc(C#N)cc3)c(-c3cnc4c(c3)OCC(=O)N4C)n3cncc23)C1 [Example 152, (R)-4-(5-(4-methyl-3-oxo-3,4-dihydro-2H-pyrido[3,2-b][1,4]oxazin-7-yl)-8-((1-methylpiperidin-3-yl)methoxy)imidazo[1,5-a]pyridin-6-yl)benzonitrile] | 50 to 100 |
| CN1CCC[C@@H](COc2cc(-c3ccc(C#N)cc3)c(-c3ccc4c(c3)CN(C)C4=O)n3cncc23)C1 [Example 154, 4-(5-(2-methyl-1-oxo-2,3-dihydro-1H-isoindol-5-yl)-8-{[(3R)-1-methylpiperidin-3-yl]methoxy}imidazo[1,5-a]pyridin-6-yl)benzonitrile] | 100 to 500 |
| CC(C)n1nnc2cc(-c3c(-c4ccc(C#N)cc4)cc(OC[C@@H]4CCCN(C)C4)c4cncn34)cnc21 [Example 155, (R)-4-(5-(3-isopropyl-3H-[1,2,3]triazolo[4,5-b]pyridin-6-yl)-8-((1-methylpiperidin-3-yl)methoxy)imidazo[1,5-a]pyridin-6-yl)benzonitrile] | 100 to 500 |
| CN1CCC[C@@H](COc2cc(-c3ccc(C#N)cc3)c(-c3cnc4c(c3)nnn4C3CC3)n3cncc23)C1 [Example 156, (R)-4-(5-(3-cyclopropyl-3H-[1,2,3]triazolo[4,5-b]pyridin-6-yl)-8-((1-methylpiperidin-3-yl)methoxy)imidazo[1,5-a]pyridin-6-yl)benzonitrile] | 100 to 500 |
| CC(C)c1nc2cc(-c3c(-c4ccc(C#N)cc4)cc(OC[C@@H]4CCCN(C)C4)c4cncn34)cnc2n1C [Example 157, (R)-4-(5-(2-isopropyl-3-methyl-3H-imidazo[4,5-b]pyridin-6-yl)-8-((1-methylpiperidin-3-yl)methoxy)imidazo[1,5-a]pyridin-6-yl)benzonitrile] | 100 to 500 |
| CN1CCC[C@@H](COc2cc(-c3ccc(C#N)cc3)c(-c3cnc4c(c3)nc(C3CC3)n4C)n3cncc23)C1 [Example 158, (R)-4-(5-(2-cyclopropyl-3-methyl-3H-imidazo[4,5-b]pyridin-6-yl)-8-((1-methylpiperidin-3-yl)methoxy)imidazo[1,5-a]pyridin-6-yl)benzonitrile] | 100 to 500 |
